The data set in a line: Room temperature solubility in methanol. The format is physicochemical. The conditions noted are these: room temperature (20° C. to 30° C.).

The results in this text go back to patent US10675602B2, “Spray-drying process” (Bend Research, Inc., priority 2009, dated 2020).

Each structure is given as a SMILES string.

The compound `CCC(=O)O[C@]1(C(=O)SCF)[C@H](C)C[C@H]2[C@@H]3C[C@H](F)C4=CC(=O)C=C[C@]4(C)[C@@]3(F)[C@@H](O)C[C@@]21C` [Active Agent 1, S-(fluoromethyl) 6α,9-difluoro-11β,17-dihydroxy-16α-methyl-3-oxoandrosta-1,4-diene-17β-carbothioate, 17-propionate] gave a solubility in methanol of 0.3 wt %.
